Source: the OPERA property sets (Mansouri et al. 2018)

Details: not given
Work on `COc1cc(OC)nc(NC(=O)NS(=O)(=O)c2ncccc2C(F)(F)F)n1` yielded a melting point of 180 °C.
With `O=CC(Cl)(Cl)Cl` the boiling point was 97.8 °C, the log10 Henry constant (atm·m³/mol) was -8.54 and the log10 vapour pressure (mmHg) was 1.7. For the same compound, the melting point was -57.5 °C and the ready biodegradability was “not readily biodegradable”.
With `Cc1ccc(O)cn1` the melting point was 169 °C.
Work on `c1ccc2c(c1)Cc1ccccc1-2` yielded a boiling point of 295 °C, a log10 Henry constant (atm·m³/mol) of -4.02 and a log10 Koa of 6.79. For the same compound, the log10 Koc (L/kg) was 3.7, the log10 biodegradation half-life (days) was 1.64 and the log10 vapour pressure (mmHg) was -3.22. For the same compound, the melting point was 115 °C and the ready biodegradability was “not readily biodegradable”.
In the case of `O=[N+]([O-])c1ccc2ccc3cccc4ccc1c2c34`, the melting point is reported as 155 °C.
For `CN(C)S(=O)N(C)C`, the boiling point was 209 °C and the melting point was 31 °C.
In the case of `COc1ccc2[nH]c(S(=O)Cc3ncc(C)c(OC)c3C)nc2c1` (centres undefined), the melting point is reported as 156 °C.
Compound `CC(C)CCOC(=O)OCCC(C)C` has a boiling point of 234 °C.
In the case of `CCc1cccc(C)c1C`, the boiling point is reported as 194 °C, the log10 biodegradation half-life (days) is reported as 0.778 and the log10 vapour pressure (mmHg) is reported as -0.206. The melting point was -49.5 °C.
In the case of `ClCC1CC1`, the boiling point is reported as 88 °C and the melting point is reported as -90.9 °C.
`CC#CC=CC` gave a boiling point of 88.5 °C.
For `CCCCCCCCCCS`, the boiling point was 241 °C, the log10 vapour pressure (mmHg) was -1.44 and the melting point was -26 °C.
`CCCCC(=O)CC` gave a boiling point of 147 °C, a log10 vapour pressure (mmHg) of 0.415 and a melting point of -39 °C.
`C/C(=N\C#N)N(C)Cc1ccc(Cl)nc1` gave a melting point of 98.9 °C.
`CCCCCCCCCCCCCCCC(=O)Cl` showed a melting point of 12 °C.
In the case of `CCCOc1ccccc1O`, the boiling point is reported as 227 °C.
Compound `CCCF` has a boiling point of 2.5 °C, a log10 vapour pressure (mmHg) of 3.3 and a melting point of -159 °C.
With `O=[N+]([O-])c1ccc(O/N=C/c2cc(Br)c(O)c(Br)c2)c([N+](=O)[O-])c1` the melting point was 196 °C.
Compound `CCCCc1ccccn1` has a boiling point of 192 °C and a melting point of 97 °C.
For `CC(=O)O.CCCCCCCCCCCCCCCCCC1=NCCN1`, the melting point was 65 °C.
With `Cc1cc2ccccc2nc1C` the boiling point was 263 °C and the melting point was 68.5 °C.
Compound `C1CC12CC2` has a boiling point of 39 °C, a log10 vapour pressure (mmHg) of 2.66 and a melting point of -135 °C.
Work on `O=S1(=O)OCC2C(CO1)C1(Cl)C(Cl)=C(Cl)C2(Cl)C1(Cl)Cl` (centres undefined) yielded a log10 vapour pressure (mmHg) of -6.55 and a melting point of 182 °C.
`Nc1ccc(N=O)cc1` gave a melting point of 174 °C.
In the case of `O=[N+]([O-])c1cccc(C(F)(F)F)c1`, the boiling point is reported as 203 °C, the log10 vapour pressure (mmHg) is reported as -0.587 and the melting point is reported as -2.4 °C.
`Nc1ccc(N=Nc2ccccc2)c(N)n1` gave a log10 Koc (L/kg) of 2.32 and a melting point of 139 °C.
Compound `CC(F)(F)C(F)(F)F` has a boiling point of -17.4 °C and a log10 vapour pressure (mmHg) of 3.54.
`CCC1(C)OCCO1` gave a boiling point of 116 °C.
Compound `C=COC(=O)C(C)C` has a boiling point of 104 °C.
In the case of `CC(=O)c1ccc(Cl)cc1`, the boiling point is reported as 232 °C and the melting point is reported as 20 °C.
`Cc1ccc(O)c2ccccc12` showed a melting point of 85.8 °C.
`COC(=O)c1ccc(I)cc1` gave a melting point of 115 °C.
With `NC(=O)NC(=O)Cc1ccccc1` the melting point was 215 °C.
With `c1ccc(-c2ccc(-c3ccc(-c4ccccc4)cc3)cc2)cc1` the melting point was 320 °C.
Work on `COc1cc(C[C@H]2c3cc(OC)c(OC)cc3CCN2C)c(Oc2cc3c(cc2OC)-c2c(OC)c(OC)cc4c2[C@H](C3)N(C)CC4)cc1OC` yielded a melting point of 160 °C.
`FC(F)(F)C(Cl)=CCl` gave a boiling point of 53.7 °C and a melting point of -109 °C.
`N#Cc1ccc(N)cc1Cl` showed a melting point of 118 °C.
For `O=C1CCCCCC1c1ccccc1` (centres undefined), the melting point was 22.2 °C.
Work on `Oc1c(Cl)cc(Cl)c(Cl)c1Cl` yielded a log10 Koc (L/kg) of 3.35, a log10 vapour pressure (mmHg) of -3.18 and a melting point of 70 °C. For the same compound, the ready biodegradability was “not readily biodegradable”.
For `C=COCC(CC)CCCC` (centres undefined), the melting point was -100 °C and the ready biodegradability was “not readily biodegradable”.
With `C=CCCCCCCCCCCCCCCCCCCCCC(=O)O` the ready biodegradability was “readily biodegradable”.
`CCN(CC)C(=O)c1ccc(O)c(OC)c1` showed a melting point of 95 °C.
For `Nc1c(Br)cc([N+](=O)[O-])cc1[N+](=O)[O-]`, the melting point was 154 °C.
`CCc1cccc(N)c1` showed a boiling point of 214 °C and a melting point of -64 °C.
In the case of `CN(O)CCO`, the ready biodegradability is reported as “readily biodegradable”.
`FC(F)(F)C1(F)C(F)(F)C(F)(C(F)(F)F)C(F)(F)C(F)(C(F)(F)F)C1(F)F` (centres undefined) showed a boiling point of 125 °C.
`N#Cc1c(F)c(F)c(F)c(F)c1C#N` gave a melting point of 83 °C.
Work on `CC(C)(Br)[N+](=O)[O-]` yielded a boiling point of 153 °C.
`CC[C@H]1OC(=O)[C@H](C)[C@@H](O[C@@H]2O[C@H](C)C[C@H](N(C)C)[C@H]2O)[C@@H](C)C[C@@H](C)C(=O)C=C[C@]1(C)O` showed a melting point of 196 °C.
In the case of `O=C(c1ccc(O)cc1O)c1ccc(O)cc1O`, the melting point is reported as 202 °C.
`CCOC(=O)c1cccc2ccccc12` gave a boiling point of 310 °C.
`CCc1ccccc1-n1c(C)nc2ccccc2c1=O` gave a melting point of 81 °C.
For `O=C(O)c1ccccc1S(=O)(=O)O`, the melting point was 141 °C and the ready biodegradability was “not readily biodegradable”.
`CC1(C)CCC(C)(C)O1` showed a boiling point of 112 °C.
With `C/C=C/CCCCCCCC` the boiling point was 194 °C and the melting point was -57.4 °C.
Compound `Cc1ccc2ccccc2c1N` has a melting point of 32 °C.
In the case of `CC(C)(C)OOC(C)(C)CCC(C)(C)OOC(C)(C)C`, the melting point is reported as 8 °C and the ready biodegradability is reported as “not readily biodegradable”.
Compound `c1ccc(CCc2ccccn2)cc1` has a boiling point of 289 °C and a melting point of -3 °C.
With `CC(C)=CC(=O)NS(=O)(=O)c1ccc(N)cc1` the melting point was 184 °C.
Work on `CNC(=O)CSP(=O)(OC)OC` yielded a log10 vapour pressure (mmHg) of -4.61 and a melting point of -28 °C.
In the case of `Cc1cc(Cl)n(C)n1`, the boiling point is reported as 158 °C.
In the case of `CC1OC1C` (centres undefined), the boiling point is reported as 58.2 °C and the melting point is reported as -82.5 °C.
`CC(=O)[C@H]1CC[C@H]2[C@@H]3CC[C@H]4C[C@H](O)CC[C@]4(C)[C@H]3CC[C@]12C` gave a melting point of 174 °C.
`O=C(O)CCCC(=O)O` showed a boiling point of 303 °C and a log10 vapour pressure (mmHg) of -5.54.
Work on `C=CC(O)CCCCCC` (centres undefined) yielded a boiling point of 194 °C.
In the case of `COC(=O)/C=C/C(C)=C\C=C\C(C)=C\C=C\C=C(C)\C=C\C=C(C)\C=C\C(=O)O`, the melting point is reported as 198 °C.
`O=C(O)C1=CCCc2ccccc21` showed a boiling point of 306 °C and a melting point of 125 °C.
For `C=CCc1ccc(OC)c(OC)c1`, the boiling point was 263 °C, the log10 vapour pressure (mmHg) was -1.92 and the ready biodegradability was “readily biodegradable”.
With `C[C@H]1C[C@@H](OC(=O)c2ccccc2)CC(C)(C)N1` the melting point was 70.5 °C.

Same assay, conditions: fish
`c1ccc2c(c1)Cc1ccccc1-2` showed a log10 BCF of 2.72 and a log10 biotransformation half-life (days) of 0.7.
`Oc1c(Cl)cc(Cl)c(Cl)c1Cl` showed a log10 BCF of 2.3.
Compound `C=COCC(CC)CCCC` (centres undefined) has a log10 BCF of 2.78.
`CC(C)(C)OOC(C)(C)CCC(C)(C)OOC(C)(C)C` gave a log10 BCF of 3.48 and a log10 biotransformation half-life (days) of 0.77.
`Cc1ccc(-c2ccc(C)c(C)c2)cc1C` gave a log10 biotransformation half-life (days) of -0.01.
